Test results published in patent US7655395B2, “Isolation and use of ryanodine receptors” (E.I. du Pont de Nemours and Company, priority 2002, dated 2010).

Tests used:
[1] = target: T1, recombinant Drosophila melanogaster ryanodine receptors (expressed in Sf9 cells) (Drosophila melanogaster, UniProt Q24498); assay type: cell-based; details: receptor expressed in Sf9 cells
T1 construct: expressed in transfected cells
Method: The Spodoptera frugiperda cell line Sf9 used for transfection studies, was maintained in Sf-900 II SFM medium (Invitrogen Life Technologies™, Carlsbad, Calif.) in T-75 flasks incubated at 27° C. It is understood that those skilled in the art might choose alternative cell types such as the Spodoptera frugiperda cell line Sf21 or the Drosophila cell line S2. For the purpose of general handling and propagation, cells were suspended through scraping or agitation and a volume of cell suspension was added to each well of a poly-L-lysine coated 96-well, glass-bottom plate so as to provide 70-80% confluence. Cells were maintained in an incubator at 27° C. until testing.
SF900-II media was used to bring the final volume in the dish to 2 ml and the cells were incubated at 27 degrees C. for 21 h. Following the incubation the media was aspirated from the dish and replaced with 1 ml of SF900-II media pre-warmed to 27 degrees C.
The transient transfection was carried out following an InsectSelect BSD System manual (Invitrogen Life Technologies™, Carlsbad, Calif.). […] The transfection was accomplished by adding the transfection solution drop-wise to the dish and incubating 4 h at room temperature with gentle rocking. […]
(§1) Several drops of a suspension of recombinant Spodoptera frugiperda cell line, Sf9, transiently expressing insect ryanodine receptors were placed on a poly-L-lysine-coated coverslip and allowed to attach. Cells were then rinsed in physiological saline having the following composition (mM): NaCl 130; KCl 5.4; MgCl2 1.2; CaCl2 1.0; NaHCO3 4.2; NaH2P04 7.3; Glucose 10; Sucrose 63; MES 20; pH 6.3. Cells were then bathed in physiological saline containing the calcium sensitive fluoroprobe, Fura-2 AM (2 μM), and Pluronic F127 (0.002%) for 30 min. Cells were rinsed in standard physiological saline for at least 15 min prior to testing. Testing was conducted in standard physiological saline, as the cell lines are devoid of functional voltage-gated calcium channels.
Cell-attached coverslips were placed in a sealed chamber with physiological saline continuously perfused across the cells using a peristaltic pump. Test compounds solubilized in physiological saline were applied by switching the perfusate source.
(§2) For studies involving the stable recombinant Spodoptera frugiperda cell line, Sf9, (other cell lines could also be used such as Sf21, S2, etc) expressing an insect ryanodine receptor from Drosophila melanogaster, or Heliothis virescens (alternatively receptors from other species such as Myzus persicae, Peregrinus maidis, Aphis gossypii, etc) were grown in T75 (or other appropriate sized) flasks in supplemented Grace's insect medium. Cells were maintained in an incubator at 22° C. until testing. Cells were suspension-loaded with the calcium sensitive fluoroprobe, Fura-2 AM (1-2 μM) and Pluronic F127 (0.002%) in culture medium for 30 minutes under agitation. Cells were then centrifuged and the pellet resuspended in physiological saline having the following composition (mM): NaCl 130; KCl 5.4; MgCl2 1.2; CaCl2 1.0; NaHCO3 4.2; NaH2P04 7.3; Glucose 10; Sucrose 63; MES 20; pH 6.3 at approximately 150,000-200,000 cells per well (96-well plate). After a 30 minute equilibration period the cell plate was tested using a Molecular Devices' FlexStation™ system with dual wavelength excitation (340 and 380 nm) and fluorescence emission measured at 510 nm. Test and control samples were added using integrated fluidics and the intracellular calcium monitored over a 2 minute period.

[2] = test system: recombinant Heliothis virescens ryanodine receptor (expressed in Sf9 cells); test: Calcium release assay, Sf9 cells transiently or stably expressing Heliothis virescens ryanodine receptor (Fura-2); assay type: cell-based; details: for calcium response: Sf9 stably expressing H. virescens ryanodine receptor, FIG. 5
Method: SF9 cells were grown at 27 degrees C. in a Corning 125 ml polycarbonate Erlenmeyer flask to a density of 3.1 million cells per ml in SF900-II serum free media (Gibco catalog no. 10902-088, Invitrogen™, Carlsbad, Calif.). One million cells were transferred to one well of a Corning 6-well, flat bottom cell culture dish (Corning Inc., Acton, Mass., catalog no. 3516). SF900-II media was used to bring the final volume in the dish to 2 ml and the cells were incubated at 27 degrees C. for 21 h. Following the incubation the media was aspirated from the dish and replaced with 1 ml of SF900-II media pre-warmed to 27 degrees C.
In the case of the vectors containing the Cre recognition elements, the transfection solution was mixed in a 1.5 ml microfuge tube by combining 5 ug of pHE7 plasmid, 5 ug of pMLS104 Cre plasmid and 0.5 ug of lacZ reporter plasmid, 15 ug of cellfectin reagent (Invitrogen cat. #10362-010) and SF900-II serum free media (Gibco catalog #10902-088, Invitrogen™, Carlsbad, Calif.) in a total volume of 500 ul. The solution was incubated for 1 hour at room temperature just prior to the transfection.
The transfection was accomplished by adding the transfection solution drop-wise to the dish and incubating 4 h at room temperature with gentle rocking. After the 4 h incubation the media was replaced with 2 ml of SF900-II media pre-warmed to 27 degrees C. and the cells were incubated 3 days at 27 degrees C.
as §1, with “Testing was conducted in standard physiological saline, as the cell lines are devoid of functional voltage-gated calcium channels.” left out
For studies involving the stable recombinant Spodoptera frugiperda cell line, Sf9, (other cell lines could also be used such as Sf21, S2, etc) expressing an insect ryanodine receptor from Drosophila melanogaster, or Heliothis virescens (alternatively receptors from other species such as Myzus persicae, Peregrinus maidis, Aphis gossypii, etc) were grown in T75 (or other appropriate sized) flasks in supplemented Grace's insect medium. […] After a 30 minute equilibration period the cell plate was tested using a Molecular Devices' FlexStation™ system with dual wavelength excitation (340 and 380 nm) and fluorescence emission measured at 510 nm. […]

[3] = test system: control cells without DNA / wild-type Sf9 cells; test: Calcium response in control Sf9 cells (without DNA, lipid only, non-transfected, wild type); assay type: cell-based, Spodoptera frugiperda
Description: as §1
Imaging studies were conducted using a Nikon Diaphot microscope with a 40× oil immersion objective (NA 1.3) Image acquisition and processing was performed using the MetaFluor™ imaging system from Universal Imaging Corporation (West Chester, Pa.) Calcium calibration was carried out using the Grynkiewicz equation with a dissociation constant (Kd) of 145 nM for Fura-2 (Grynkiewicz et al., 1985). Cell-attached coverslips were placed in a sealed chamber with physiological saline continuously perfused across the cells using a peristaltic pump. Test compounds solubilized in physiological saline were applied by switching the perfusate source.
as §2

Row | SMILES | Calcium Release Threshold (nM) D. melanogaster [1] | calcium response ([2]; Compound 14 1 μM) | calcium response in control cells without DNA ([3]; caffeine 10 mM) | caffeine dose response, calcium mobilization ([3]; wild-type Sf9 cells (Sf9-WT), FlexStation, FIG. 6) | calcium response ([2]; caffeine 10 mM) | cytosolic [Ca2+] response ([2]; caffeine 10 mM, Sf9 transiently expressing H. virescens ryanodine receptor, 72 hr post-transfection, FIG. 4)
1 | CNC(=O)c1cc(Cl)cc(C)c1NC(=O)c1cc(Br)nn1-c1ncccc1Cl [Cpd 14] | <300 nM | calcium responses elicited | – | – | – | –
2 | Cn1c(=O)c2c(ncn2C)n(C)c1=O [Caffeine, reference compound] | – | – | No significant calcium responses | insensitive | calcium responses elicited | increase in cytosolic [Ca^2+]
